Source: ChEMBL document CHEMBL1782041, “Novel non-peptide beta-secretase inhibitors derived from structure-based virtual screening and bioassay” (Bioorg Med Chem Lett, 2009)
Peptide text beside a SMILES is read from it.

Tests used:
Beta-secretase 1 [1] = molecular target: T1, Beta-secretase 1 (Homo sapiens, UniProt P56817); assay: Inhibition of BACE1 using peptide substrate Rh-EVNLDAEFKQuencher by fluorescence resonance energy transfer (FRET) assay
Beta-secretase 1 [2] = molecular target: T1, Beta-secretase 1; assay: Inhibition of BACE1 using peptide substrate Rh-EVNLDAEFKQuencher at 100 uM by fluorescence resonance energy transfer (FRET) assay

T1 sequence (P56817 whole entry): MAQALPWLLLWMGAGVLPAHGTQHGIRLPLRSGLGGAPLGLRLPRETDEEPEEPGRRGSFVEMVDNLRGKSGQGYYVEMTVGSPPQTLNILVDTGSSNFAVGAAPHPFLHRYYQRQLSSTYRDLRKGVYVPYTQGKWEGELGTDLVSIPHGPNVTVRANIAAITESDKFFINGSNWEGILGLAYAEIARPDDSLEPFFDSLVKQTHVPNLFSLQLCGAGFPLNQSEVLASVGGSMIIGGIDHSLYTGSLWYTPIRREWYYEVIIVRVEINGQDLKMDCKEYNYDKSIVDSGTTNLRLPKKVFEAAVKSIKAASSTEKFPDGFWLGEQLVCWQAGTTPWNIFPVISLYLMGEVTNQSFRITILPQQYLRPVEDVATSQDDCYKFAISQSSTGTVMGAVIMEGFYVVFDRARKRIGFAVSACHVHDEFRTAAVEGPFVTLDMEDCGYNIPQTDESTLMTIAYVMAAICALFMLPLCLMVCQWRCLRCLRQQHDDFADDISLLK

Row | SMILES | IC50 (Beta-secretase 1 [1]) | inhibition (Beta-secretase 1 [2])
1 | O=C(Nc1ncc(Cc2cccc(Cl)c2Cl)s1)c1ccc(CSc2nnc(-c3ccncc3)n2-c2ccccc2)cc1 | > 100 µM | 78%
2 | N#Cc1c(-c2ccccc2)cc(-c2ccccc2)nc1SCC(=O)Nc1cccc([N+](=O)[O-])c1 | 20 µM | 100%
3 | CCc1nnc(NC(=O)CSc2nc(-c3ccc(F)cc3)cc(-c3ccccc3)c2C#N)s1 | 50 µM | 80%
4 | Cc1nc(N/C(=N\C(=O)Nc2ccccc2)NC(=O)Nc2ccccc2)nc2ccccc12 |  | 100%
5 | N#Cc1c(NC(=O)COC(=O)CSc2nc(-c3ccccc3)cc(-c3ccccc3)n2)sc2c1CCCC2 | 34.5 µM | 75%
6 | Cc1cc(C)nc(N/C(=N\C(=O)N2c3ccccc3Sc3ccccc32)Nc2cccc([N+](=O)[O-])c2)n1 | 28.6 µM | 80%
7 | Cc1ccc(NC(=O)Cc2nnc(SCC(=O)Nc3nc(-c4ccccc4)cs3)n2C)cc1 | 21 µM | 83%
8 | O=S(=O)(c1ccc(Br)cc1)N(c1cnn(Cc2ccc(Cl)c(Cl)c2)c1)S(=O)(=O)c1ccc(Br)cc1 | 90 µM | 50%
9 | Cc1nn(-c2ccccc2)c(Cl)c1C1Nc2ccccc2-c2nnc(SCc3ccccc3)nc2O1 (configuration not stated) | 100 µM | 48%
10 | N#Cc1c(-c2ccc(F)cc2)cc(-c2ccccc2)nc1SCC(=O)NC12CC3CC(CC(C3)C1)C2 | 118 µM | 45%
11 | COc1ccc(CCNC(=O)CSc2nc3ccc(Nc4nc(N5CCCCC5)nc(N5CCCCC5)n4)cc3s2)cc1OC | 2.8 µM | 80%
12 | Cc1nc(NC(=NC(=O)Nc2ccccc2)NC(=O)Nc2ccccc2)nc2ccccc12 | 3 µM | 
13 | O=C(CSc1nc2ccc(Nc3nc(N4CCCCC4)nc(N4CCCCC4)n3)cc2s1)Nc1ccccc1F | 10.2 µM | 90%
14 | O=C(CSc1nnc(Cc2c[nH]c3ccccc23)n1Cc1ccccc1)c1c[nH]c2ccccc12 | 100 µM | 75%
15 | CC[C@H](C)[C@H](NC(=O)[C@H](CCC(=O)O)NC(=O)[C@H](CCC(=O)O)NC(=O)[C@@H](NC(=O)[C@@H](N)CCCCN)[C@@H](C)O)C(=O)N[C@@H](CO)C(=O)N[C@@H](CCC(=O)O)C(=O)N[C@H](C(=O)N[C@@H](CC(N)=O)C(=O)N[C@@H](CC(C)C)[C@@H](O)CC(=O)N[C@H](C(=O)N[C@@H](C)C(=O)N[C@@H](CCC(=O)O)C(=O)N[C@@H](Cc1ccccc1)C(=O)O)C(C)C)C(C)C (HELM PEPTIDE1{K.T.E.E.I.S.E.V.N.[CC(C)C[C@H](N[*:1])[C@@H](O)CC(=O)[*:2]].V.A.E.F}$$$$V2.0) | 0.12 µM | 100%
16 | COc1ccc(-c2cc(-c3ccc(Cl)cc3)c(C#N)c(SCC(=O)N(c3ccccc3)c3ccc4ccccc4c3)n2)cc1 | 50 µM | 68%
17 | N#Cc1c(NC(=O)C(F)(F)C(F)(F)C(F)(F)C(F)(F)C(=O)Nc2sc3c(c2C#N)CCCCCC3)sc2c1CCCCCC2 | 12.2 µM | 87%
